Reference: US20170190671A1, “BIS(ARYL)CATECHOL DERIVATIVES AS HERBICIDES” (E I DU PONT DE NEMOURS AND COMPANY, priority 2014, published 2017)

Tests used:
Format in all cases: in vivo
[1] = test system: sedge, umbrella (small-flower umbrella sedge, Cyperus difformis); assay: Test B flooded paddy; conditions: 250 g ai/ha, Flood, 13 to 15 days, scale 0 (no effect) to 100 (complete control)
Text: (§1) At time of treatment, test pots were flooded to 3 cm above the soil surface, treated by application of test compounds directly to the paddy water, and then maintained at that water depth for the duration of the test. Treated plants and controls were maintained in a greenhouse for 13 to 15 days, after which time all species were compared to controls and visually evaluated. […] A dash (-) response means no test result.

[2] = test system: barnyardgrass (Echinochloa crus-galli); assay: Test B flooded paddy; conditions: 250 g ai/ha, Flood, 13 to 15 days, scale 0 (no effect) to 100 (complete control)
Text: as §1

[3] = test system: rice (Oryza sativa); assay: Test B flooded paddy; conditions: 250 g ai/ha, Flood, 13 to 15 days, scale 0 (no effect) to 100 (complete control)
Text: as §1

[4] = test system: ducksalad (Heteranthera limosa); assay: Test B flooded paddy; conditions: 250 g ai/ha, Flood, 13 to 15 days, scale 0 (no effect) to 100 (complete control)
Text: as §1

[5] = test system: kochia (Kochia scoparia); assay: Test A postemergence; conditions: 0 to 100 scale
How it was run: (§2)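 Scoring: eye-based comparison with untreated controls, 0 for no effect through 100 for complete control, at about day 10. Treatments: directed soil spray preemergence; foliar spray postemergence on 2–10 cm plants at the one- to two-leaf stage. Medium: loam soil with sand.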

[6] = test system: ragweed (common ragweed, Ambrosia elatior); assay: Test A postemergence; conditions: 0 to 100 scale
How it was run: as §2

[7] = test system: galium (catchweed bedstraw, Galium aparine); assay: Test A postemergence; conditions: 0 to 100 scale
How it was run: as §2

[8] = test system: barnyardgrass (Echinochloa crus-galli); assay: Test A postemergence; conditions: 0 to 100 scale
How it was run: as §2

[9] = test system: pigweed (Amaranthus retroflexus); assay: Test A postemergence; conditions: 0 to 100 scale
How it was run: as §2

[10] = test system: blackgrass (Alopecurus myosuroides); assay: Test A postemergence; conditions: 0 to 100 scale
How it was run: as §2

[11] = test system: wheat (Triticum aestivum); assay: Test A postemergence; conditions: 0 to 100 scale
How it was run: as §2

[12] = test system: Italian ryegrass (Lolium multiflorum); assay: Test A postemergence; conditions: 0 to 100 scale
How it was run: as §2

[13] = test system: giant foxtail (Setaria faberii); assay: Test A postemergence; conditions: 0 to 100 scale
How it was run: as §2

[14] = test system: corn (Zea mays); assay: Test A postemergence; conditions: 0 to 100 scale
How it was run: as §2

[15] = test system: kochia (Kochia scoparia); assay: Test A preemergence; conditions: for Kochia plant response rating: 0 to 100 scale (0 no effect, 100 complete control); for Plant response rating, Kochia: 0 to 100 scale
How it was run: as §2

[16] = test system: ragweed (common ragweed, Ambrosia elatior); assay: Test A preemergence; conditions: for Ragweed plant response rating: 0 to 100 scale (0 no effect, 100 complete control); for Plant response rating, Ragweed: 0 to 100 scale
How it was run: as §2

[17] = test system: barnyardgrass (Echinochloa crus-galli); assay: Test A preemergence; conditions: for Barnyardgrass plant response rating: 0 to 100 scale (0 no effect, 100 complete control); for Plant response rating, Barnyardgrass: 0 to 100 scale
How it was run: as §2

[18] = test system: pigweed (Amaranthus retroflexus); assay: Test A preemergence; conditions: for Pigweed plant response rating: 0 to 100 scale (0 no effect, 100 complete control); for Plant response rating, Pigweed: 0 to 100 scale
How it was run: as §2

[19] = test system: Italian ryegrass (Lolium multiflorum); assay: Test A preemergence; conditions: for Ryegrass, Italian plant response rating: 0 to 100 scale (0 no effect, 100 complete control); for Plant response rating, Ryegrass, Italian: 0 to 100 scale
How it was run: as §2

[20] = test system: giant foxtail (Setaria faberii); assay: Test A preemergence; conditions: for Foxtail, Giant plant response rating: 0 to 100 scale (0 no effect, 100 complete control); for Plant response rating, Foxtail, Giant: 0 to 100 scale
How it was run: as §2

For `Fc1ccc(Oc2ccc(C(F)(F)F)cn2)c(Oc2ncc(Cl)cn2)c1` [Compound 45, 5-chloro-2-[5-fluoro-[2-[5-(trifluoromethyl)pyridin-2-yl]oxy]phenoxy]pyrimidine], the “Plant response rating, Sedge, Umbrella” value [1] was 70, the “Plant response rating, Barnyardgrass” value [2] was 0 and the “Plant response rating, Rice” value [3] was 0. The “Plant response rating, Ducksalad” value [4] was 75, the “Plant response rating, Kochia” value ([5]; 31 g ai/ha) was 20 and the “Plant response rating, Kochia” value ([5]; 125 g ai/ha) was 80. For the same compound, the “Plant response rating, Ragweed” value ([6]; 31 g ai/ha) was 0, the “Plant response rating, Ragweed” value ([6]; 125 g ai/ha) was 20 and the “Plant response rating, Galium” value ([7]; 31 g ai/ha) was 60. The “Plant response rating, Galium” value ([7]; 125 g ai/ha) was 70, the “Plant response rating, Barnyardgrass” value ([8]; 31 g ai/ha) was 0 and the “Plant response rating, Barnyardgrass” value ([8]; 125 g ai/ha) was 0. The “Plant response rating, Pigweed” value ([9]; 31 g ai/ha) was 20, the “Plant response rating, Pigweed” value ([9]; 125 g ai/ha) was 20 and the “Plant response rating, Blackgrass” value ([10]; 31 g ai/ha) was 0. The “Plant response rating, Blackgrass” value ([10]; 125 g ai/ha) was 30, the “Plant response rating, Wheat” value ([11]; 31 g ai/ha) was 0 and the “Plant response rating, Wheat” value ([11]; 125 g ai/ha) was 20. For the same compound, the “Plant response rating, Ryegrass, Italian” value ([12]; 31 g ai/ha) was 0, the “Plant response rating, Ryegrass, Italian” value ([12]; 125 g ai/ha) was 0 and the “Plant response rating, Foxtail, Giant” value ([13]; 31 g ai/ha) was 0. For the same compound, the “Plant response rating, Foxtail, Giant” value ([13]; 125 g ai/ha) was 0, the “Plant response rating, Corn” value ([14]; 31 g ai/ha) was 0 and the “Plant response rating, Corn” value ([14]; 125 g ai/ha) was 30. The “Kochia plant response rating” value ([15]; 31 g ai/ha) was 0, the “Kochia plant response rating” value ([15]; 125 g ai/ha) was 10 and the “Ragweed plant response rating” value ([16]; 31 g ai/ha) was 0. For the same compound, the “Ragweed plant response rating” value ([16]; 125 g ai/ha) was 10, the “Barnyardgrass plant response rating” value ([17]; 31 g ai/ha) was 0 and the “Barnyardgrass plant response rating” value ([17]; 125 g ai/ha) was 30. For the same compound, the “Pigweed plant response rating” value ([18]; 31 g ai/ha) was 0, the “Pigweed plant response rating” value ([18]; 125 g ai/ha) was 0 and the “Ryegrass, Italian plant response rating” value ([19]; 31 g ai/ha) was 0. The “Ryegrass, Italian plant response rating” value ([19]; 125 g ai/ha) was 0, the “Foxtail, Giant plant response rating” value ([20]; 31 g ai/ha) was 30 and the “Foxtail, Giant plant response rating” value ([20]; 125 g ai/ha) was 100.
In the case of `N#Cc1cccc(Oc2ncc(Cl)cn2)c1Oc1ccc(C(F)(F)F)nc1` [Compound 13], the “Plant response rating, Sedge, Umbrella” value [1] is reported as 0, the “Plant response rating, Barnyardgrass” value [2] is reported as 0 and the “Plant response rating, Rice” value [3] is reported as 0. The “Plant response rating, Ducksalad” value [4] was 0, the “Plant response rating, Kochia” value ([5]; 125 g ai/ha) was 0 and the “Plant response rating, Kochia” value ([5]; 500 g ai/ha) was 0. The “Plant response rating, Ragweed” value ([6]; 125 g ai/ha) was 0, the “Plant response rating, Ragweed” value ([6]; 500 g ai/ha) was 0 and the “Plant response rating, Galium” value ([7]; 125 g ai/ha) was 0. The “Plant response rating, Galium” value ([7]; 500 g ai/ha) was 0, the “Plant response rating, Barnyardgrass” value ([8]; 125 g ai/ha) was 0 and the “Plant response rating, Barnyardgrass” value ([8]; 500 g ai/ha) was 0. The “Plant response rating, Pigweed” value ([9]; 125 g ai/ha) was 10, the “Plant response rating, Pigweed” value ([9]; 500 g ai/ha) was 40 and the “Plant response rating, Blackgrass” value ([10]; 125 g ai/ha) was 0. The “Plant response rating, Blackgrass” value ([10]; 500 g ai/ha) was 0, the “Plant response rating, Wheat” value ([11]; 125 g ai/ha) was 0 and the “Plant response rating, Wheat” value ([11]; 500 g ai/ha) was 0. The “Plant response rating, Ryegrass, Italian” value ([12]; 125 g ai/ha) was 0, the “Plant response rating, Ryegrass, Italian” value ([12]; 500 g ai/ha) was 0 and the “Plant response rating, Foxtail, Giant” value ([13]; 125 g ai/ha) was 0. The “Plant response rating, Foxtail, Giant” value ([13]; 500 g ai/ha) was 0, the “Plant response rating, Corn” value ([14]; 125 g ai/ha) was 0 and the “Plant response rating, Corn” value ([14]; 500 g ai/ha) was 0. For the same compound, the “Plant response rating, Kochia” value ([15]; 125 g ai/ha) was 0, the “Plant response rating, Kochia” value ([15]; 500 g ai/ha) was 0 and the “Plant response rating, Ragweed” value ([16]; 125 g ai/ha) was 0. The “Plant response rating, Ragweed” value ([16]; 500 g ai/ha) was 0, the “Plant response rating, Barnyardgrass” value ([17]; 125 g ai/ha) was 0 and the “Plant response rating, Barnyardgrass” value ([17]; 500 g ai/ha) was 0. For the same compound, the “Plant response rating, Pigweed” value ([18]; 125 g ai/ha) was 0, the “Plant response rating, Pigweed” value ([18]; 500 g ai/ha) was 0 and the “Plant response rating, Ryegrass, Italian” value ([19]; 125 g ai/ha) was 0. For the same compound, the “Plant response rating, Ryegrass, Italian” value ([19]; 500 g ai/ha) was 0, the “Plant response rating, Foxtail, Giant” value ([20]; 125 g ai/ha) was 0 and the “Plant response rating, Foxtail, Giant” value ([20]; 500 g ai/ha) was 0.
